Measurements published in patent US6548521B1, “Inhibitors of metazoan parasite proteases” (The Regents of the University of California, priority 1992, dated 2003).
pIC50: −log10 of the molar value.

These molecules were tested on Plasmodium falciparum clone from CDC/Indochina III (W-2) (assay: WRAIR in vitro antimalarial serial dilution assay ([3H]-hypoxanthine incorporation)). Details: not given.
Format: cell-based
Text: The Walter Reed Army Institute of Research (WRAIR) in vitro screens for intrinsic antimalarial activity are based on modifications of procedures described in the literature [Desjardins, R. E. et al. (1979) J.D. Antimicrobial Agents and Chemotherapy, 16(6):710-8]; Chulay et al. (1983) [Journal of Infectious Diseases 148(1):148-55]; Milhous, W. K. et al. (1985) [Antimicrobial Agents and Chemotherapy 27(4):525-30]. The system is directed to the assessment of the intrinsic activity against the erythrocytic asexual life cycle (blood schizontocides)]. A minimum of 10 mg of sample is generally submitted for initial testing. Two Plasmodium falciparum clones from CDC/Indochina III (W-2) and CDC/Sierra Leone I (D-6) [Oduola, A. M. et al. (1988) [Experimental Parasitology 67(2):354-60] are used for all assays. W-2 is resistant to chloroquine, quinine and pyrimethamine and susceptible to mefloquine. D-6 is resistant to mefloquine and susceptible to chloroquine, quinine and pyrimethamine.
The clones are maintained in continuous log-phase growth in RPMI-1640 medium supplemented with 6% washed human A+ erythrocytes, 25 mM Hepes, […] NaHCO3 and 10% heat inactivated A+ human plasma or albuMAX™ (lipid-rich bovine serum albumin, GIBCO, Grand Island, N.Y.). All cultures and assays are conducted at 37° C. under an atmosphere of 5% CO2 and 5% O2, with a balance of N2.
The preliminary screen uses D-6 diluted to a 0.2% parasitemia in a 1% hematocrit in folic acid free and p-aminobenzoic acid free RPMI-1640 and albuMAX™ (FF-CM). […] The compound is further diluted to a stock solution to 10 ml with FF-CM. This stock solution is kept at −70° C. until used. The clone is preexposed, in duplicate, at three concentrations (50,000 ng/ml, 5,000 ng/ml and 50 ng/ml) of the test compound for 48 hr in a 96-well microliter plate (MTP) using a Biomek® 1000 automated laboratory workstation (Beckman Instruments, Fullerton, Calif.). Each MTP contains chloroquine-containing controls to assess the relative activity of the unknown compound and to monitor the response of D-6.
After the preincubation, [^3H]-hypoxanthine is added to each well of the MTP to determine if the parasites can still replicate or repair DNA. After 66 hr of total incubation time, the MTP are frozen to lyse the erythrocytes and parasites. The parasite DNA is recovered by harvesting the lysate onto glass-fiber filters using a Mark II cell-harvester (Tomtec, Orange, Conn.). The radioactivity is counted on a 1205 Betaplate™ liquid scintillation counter (Wallac, Turku, Finland).
The serial dilution assay is conducted using the same assay conditions and stock solution of the compound used for the preliminary screen. Both the D-6 and the W-2 clones are used. The compound is diluted two-fold over 11 different concentration ranges with a starting concentration that is based on the preliminary screen. The IC50 is determined by a non-linear logistic dose response analysis (TableCurve™, Jandel Scientific, Corte Madera, Calif.). […] For each assay, the IC50 for each clone is determined against the known antimalarials chloroquine, mefloquine, artemisinin, quinine and pyrimethamine. These control values establish the unknown compound's relative parasite susceptibility profile compared to known antimalarials. IC50s can be similarly determined for drug-resistant isolates/clones from a wide variety of geographic locations.

SMILES | antimalarial activity (in words)
O=C(/C=C/c1ccccc1O)c1ccc(O)cc1O [Compound 21] | activity similar to that of hydrazide derivative IV44A
COc1ccc(C(=O)/C=C/c2ccc([N+](=O)[O-])cc2)cc1OC [Compound 24] | poor activity
O=C(C=Cc1ccccc1)n1ccnc1 [Compound 48, cinnamoylimidazole, reference compound] | substantially no activity

Same assay, conditions: Plasmodium falciparum, Table I, formula III; W2 clone (CDC/Indochina III); * run: chloroquine 0.23 μM; † run: chloroquine 0.2-0.4 μM

SMILES | pIC50
CCN(CC)CCCC(C)Nc1ccnc2cc(Cl)ccc12 (stereo not drawn) [Chloroquine, chloroquine, reference compound] | 6.64

Same assay, conditions: Plasmodium falciparum, Table II, formula IV; * run: chloroquine 0.2-0.4 μM

SMILES | pIC50
CCN(CC)CCCC(C)Nc1ccnc2cc(Cl)ccc12 (stereo not drawn) [Chloroquine, chloroquine, reference compound] | 6.40 to 6.70

Same assay, conditions: Plasmodium falciparum, Table III, formula V

SMILES | pIC50
CCN(CC)CCCC(C)Nc1ccnc2cc(Cl)ccc12 (stereo not drawn) [Chloroquine, chloroquine, reference compound] | 6.40 to 6.70

Same assay, conditions: Plasmodium falciparum, read-out: WR, IC50 (μM), Table IV, formula VI

SMILES | IC50 [µM]
CCN(CC)CCCC(C)Nc1ccnc2cc(Cl)ccc12 (stereo not drawn) [Chloroquine, chloroquine, reference compound] | 0.23

Same assay, conditions: Plasmodium falciparum; similar tests

SMILES | pIC50
CCN(CC)CCCC(C)Nc1ccnc2cc(Cl)ccc12 (stereo not drawn) [Chloroquine, chloroquine, reference compound] | 6.40 to 6.70

Same assay, conditions: Plasmodium falciparum; similar tests; read-out: IC50

SMILES | pIC50
COc1ccc(C(=O)/C=C/c2cccnc2)c(OC)c1 [Compound 44] | 5.51
Cn1cc(/C=C/C(=O)c2ccc(-n3ccnc3)cc2)c2ccccc21 [Compound 56] | 4.70

Same assay, conditions: Table I, formula III; W2 clone (CDC/Indochina III); * run: chloroquine 0.23 μM; † run: chloroquine 0.2-0.4 μM

SMILES | pIC50
CCN(CC)CCCC(C)Nc1ccnc2cc(Cl)ccc12 (stereo not drawn) [Chloroquine, chloroquine, reference compound] | 6.70

Same assay, conditions: Table I, formula III; W2 clone (CDC/Indochina III); * run: chloroquine 0.23 μM; † run: chloroquine 0.2-0.4 μM; read-out: IC50

pIC50 | SMILES
6.41 | COc1ccc(C(=O)/C=C/c2cccc(Cl)c2Cl)cc1OC [Compound 2]
6.13 | COc1ccc(C(=O)/C=C/c2cccc(Cl)c2)c(OC)c1 [Compound 6]
6.05 | O=C(/C=C/c1cc(Cl)cc(Cl)c1)c1ccc(Cl)cc1Cl [Compound 8]
6.02 | COc1ccc(C(=O)/C=C/c2ccccc2OC)c(OC)c1 [Compound 9]
5.89 | COc1ccc(C(=O)/C=C/c2cc(F)ccc2F)c(OC)c1 [Compound 10]
5.72 | COc1ccc(/C=C/C(=O)c2cc(Cl)ccc2Cl)c(OC)c1 [Compound 12]
5.70 | COc1ccc(C(=O)/C=C/c2c(F)cccc2F)cc1OC [Compound 13]
5.62 | COc1ccc(C(=O)/C=C/c2c(Cl)cccc2Cl)c(OC)c1 [Compound 14]
5.49 | COc1ccc(/C=C/C(=O)c2ccc(Cl)c(Cl)c2)c(OC)c1 [Compound 16]
5.44 | COc1ccc(/C=C/C(=O)c2ccc(OC)cc2OC)c(OC)c1 [Compound 17]
5.44 | O=C(/C=C/c1ccccc1)c1ccc(O)cc1O [Compound 19]
5.41 | O=C(/C=C/c1ccccc1O)c1ccc(O)cc1O [Compound 21]
5.38 | COc1ccc(C(=O)/C=C/c2c(OC)cccc2OC)cc1OC [Compound 22]
5.23 | COc1ccc(C(=O)/C=C/c2ccc([N+](=O)[O-])cc2)cc1OC [Compound 24]
5.16 | COc1ccccc1/C=C/C(=O)c1ccccc1O [Compound 25]
5.13 | O=C(/C=C/c1ccc(O)cc1)c1ccc(O)cc1O [Compound 26]
5.10 | COc1ccc(C(=O)/C=C/c2c(Cl)cccc2Cl)cc1OC [Compound 27]
5.07 | COc1ccc(C(=O)/C=C/c2c(OC)cccc2OC)c(OC)c1 [Compound 29]
5.06 | COc1ccc(C(=O)/C=C/c2cc(Cl)cc(Cl)c2)cc1OC [Compound 30]
5.00 | O=C(/C=C/c1ccccc1)c1ccc(O)c(O)c1O [Compound 31]
4.83 | O=C(/C=C/c1ccccc1O)c1ccccc1O [Compound 34]
4.79 | COc1ccc(C(=O)/C=C/c2ccc(F)c(F)c2)cc1OC [Compound 35]
4.79 | COc1ccc(/C=C/C(=O)c2ccccc2O)cc1OC [Compound 36]
4.78 | COc1ccc(C(=O)/C=C/c2ccc(Cl)cc2)cc1OC [Compound 37]
4.64 | O=C(/C=C/c1ccc(O)cc1)c1ccccc1O [Compound 39]
4.11 | O=C(/C=C/c1cccc(O)c1)c1ccccc1O [Compound 41]
3.96 | COc1ccc(C(=O)/C=C/c2ccc(F)cc2F)cc1OC [Compound 42]
< 3.83 | COc1ccc(C(=O)/C=C/c2cc(Cl)cc(Cl)c2)c(OC)c1 [Compound 43]

Continued, molecule first:

SMILES | pIC50
COc1ccc(C(=O)/C=C/c2ccc(Cl)cc2Cl)c(OC)c1 [Compound 3] | 6.38
COc1ccc(C(=O)/C=C/c2ccc(F)c(F)c2)c(OC)c1 [Compound 4] | 6.33
COc1ccc(C(=O)/C=C/c2ccc(Cl)cc2)c(OC)c1 [Compound 5] | 6.20
COc1ccc(C(=O)/C=C/c2ccc(F)cc2F)c(OC)c1 [Compound 7] | 6.11
COc1ccc(C(=O)/C=C/c2ccc(N(C)C)cc2)c(OC)c1 [Compound 11] | 5.85
O=C(/C=C/c1ccc(Cl)cc1)c1ccc(Cl)cc1Cl [Compound 18] | 5.44
COc1ccc(/C=C/C(=O)c2ccc(Cl)cc2Cl)c(OC)c1 [Compound 20] | 5.42
COc1ccc(C(=O)/C=C/c2ccccc2Cl)c(OC)c1 [Compound 23] | 5.24
COc1ccc(C(=O)/C=C/c2c(F)cccc2F)c(OC)c1 [Compound 28] | 5.09
COc1ccc(/C=C/C(=O)c2ccc(F)cc2F)c(OC)c1 [Compound 32] | 4.95
O=C(/C=C/c1ccc(Cl)cc1Cl)c1ccc(Cl)c(Cl)c1 [Compound 33] | 4.84
COc1ccc(C(=O)/C=C/c2ccc(Cl)cc2Cl)cc1OC [Compound 38] | 4.71
O=C(/C=C/c1ccc(Cl)cc1)c1ccc(Cl)c(Cl)c1 [Compound 40] | 4.50

Same assay, conditions: Table II, formula IV; * run: chloroquine 0.2-0.4 μM

SMILES | pIC50
CCN(CC)CCCC(C)Nc1ccnc2cc(Cl)ccc12 (stereo not drawn) [Chloroquine, chloroquine, reference compound] | 6.70

Same assay, conditions: Table III, formula V; read-out: IC50

pIC50 | SMILES
6.04 | O=C(/C=C/c1cc(Cl)cc(Cl)c1)c1ccc(-n2ccnc2)cc1 [Compound 50]
5.72 | O=C(/C=C/c1c(Cl)cccc1Cl)c1ccc(-n2ccnc2)cc1 [Compound 52]
5.49 | O=C(/C=C/c1ccc(F)cc1F)c1ccc(-n2ccnc2)cc1 [Compound 53]

Further lines, the molecule ahead of its results:

SMILES | pIC50
O=C(/C=C/c1ccc(Cl)cc1Cl)c1ccc(-n2ccnc2)cc1 [Compound 49] | 6.14
O=C(/C=C/c1cccc(Cl)c1Cl)c1ccc(-n2ccnc2)cc1 [Compound 51] | 5.74
O=C(/C=C/c1c(F)cccc1F)c1ccc(-n2ccnc2)cc1 [Compound 54] | 5.11
CN(C)c1ccc(/C=C/C(=O)c2ccc(-n3ccnc3)cc2)cc1 [Compound 55] | 4.74

Same assay, conditions: read-out: IC50

SMILES | pIC50
COc1ccc(/C=C/C(=O)c2ccccn2)c(OC)c1 [Compound 45] | 5.34
COc1ccc(/C=C/C(=O)c2cccnc2)c(OC)c1 [Compound 46] | 5.14
O=C(/C=C/c1ccc(Cl)c([N+](=O)[O-])c1)c1ccccn1 [Compound 47] | 5.09
O=C(C=Cc1ccccc1)n1ccnc1 [Compound 48, cinnamoylimidazole, reference compound] | < 3.60

Same assay, conditions: similar tests; read-out: IC50

SMILES | pIC50
COc1ccc(C(=O)/C=C/c2cccc(Cl)c2Cl)c(OC)c1 [Compound 1] | 6.42
COc1ccc(C(=O)/C=C/c2cccc(F)c2F)c(OC)c1 [Compound 15] | 5.55
